Test results: paper PMC6261661 (ACS chemical neuroscience, 2018)
“And” between values parts separate entries of the source, which are not always exact repeats. Identical values can stand only once. “Also recorded” adds a separate entry of the source. Like-named read-outs stand apart in the source and are kept apart here. Square brackets hold non-standard residues; d marks the D form. Peptide text beside a SMILES is read from it. Bip = N[C@@H](Cc1ccc(-c2ccccc2)cc1)C(=O)O; dBip = N[C@H](Cc1ccc(-c2ccccc2)cc1)C(=O)O; dPhe(4-I) = N[C@H](Cc1ccc(I)cc1)C(=O)O; Bta = N[C@@H](Cc1csc2ccccc12)C(=O)O; 3Pal = N[C@@H](Cc1cccnc1)C(=O)O; 4Pal = N[C@@H](Cc1ccncc1)C(=O)O; 2Thi = N[C@@H](Cc1cccs1)C(=O)O

Columns and labels:
[1] = molecular target: T1, mMC1R (Mus musculus, UniProt Q01727); details: read-out: mMC1R EC50, reference peptide from the literature, cited from earlier work
T1 sequence (Q01727 whole entry): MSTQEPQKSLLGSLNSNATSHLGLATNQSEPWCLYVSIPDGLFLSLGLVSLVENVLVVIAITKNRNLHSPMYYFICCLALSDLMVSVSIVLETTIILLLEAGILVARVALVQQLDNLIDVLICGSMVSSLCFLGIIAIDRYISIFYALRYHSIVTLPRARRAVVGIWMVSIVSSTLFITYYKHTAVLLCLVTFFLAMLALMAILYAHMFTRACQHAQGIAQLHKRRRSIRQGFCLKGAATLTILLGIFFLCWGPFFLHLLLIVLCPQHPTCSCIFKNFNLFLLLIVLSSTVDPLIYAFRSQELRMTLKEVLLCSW

[2] = molecular target: T2, mMC5R (Mus musculus, UniProt P41149); details: read-out: mMC5R EC50, reference peptide from the literature, cited from earlier work
T2 sequence (P41149 whole entry): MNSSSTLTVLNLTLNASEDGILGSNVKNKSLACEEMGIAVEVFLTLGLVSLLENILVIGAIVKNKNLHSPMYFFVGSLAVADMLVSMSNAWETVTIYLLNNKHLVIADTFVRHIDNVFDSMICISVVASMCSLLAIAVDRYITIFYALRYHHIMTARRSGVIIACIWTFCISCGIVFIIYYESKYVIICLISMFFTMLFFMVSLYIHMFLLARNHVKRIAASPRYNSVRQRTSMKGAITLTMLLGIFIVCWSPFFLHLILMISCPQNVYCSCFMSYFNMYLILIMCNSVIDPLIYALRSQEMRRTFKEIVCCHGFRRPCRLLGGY

[3] = molecular target: T3, mMC3R (Mus musculus, UniProt P33033); details: read-out: mMC3R EC50, reference peptide from the literature, cited from earlier work
T3 sequence (P33033 whole entry): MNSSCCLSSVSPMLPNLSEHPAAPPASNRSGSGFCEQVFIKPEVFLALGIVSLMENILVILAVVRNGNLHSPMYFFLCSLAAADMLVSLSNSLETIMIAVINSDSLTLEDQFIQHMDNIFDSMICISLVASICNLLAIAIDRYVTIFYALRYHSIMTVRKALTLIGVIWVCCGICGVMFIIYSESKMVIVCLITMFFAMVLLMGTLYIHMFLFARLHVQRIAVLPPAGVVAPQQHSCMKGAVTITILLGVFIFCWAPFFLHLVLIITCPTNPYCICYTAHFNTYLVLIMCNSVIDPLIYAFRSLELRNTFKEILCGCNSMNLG

[4] = molecular target: T4, mMC4R (Mus musculus, UniProt P56450); details: read-out: mMC4R EC50, reference peptide from the literature, cited from earlier work
T4 sequence (P56450 whole entry): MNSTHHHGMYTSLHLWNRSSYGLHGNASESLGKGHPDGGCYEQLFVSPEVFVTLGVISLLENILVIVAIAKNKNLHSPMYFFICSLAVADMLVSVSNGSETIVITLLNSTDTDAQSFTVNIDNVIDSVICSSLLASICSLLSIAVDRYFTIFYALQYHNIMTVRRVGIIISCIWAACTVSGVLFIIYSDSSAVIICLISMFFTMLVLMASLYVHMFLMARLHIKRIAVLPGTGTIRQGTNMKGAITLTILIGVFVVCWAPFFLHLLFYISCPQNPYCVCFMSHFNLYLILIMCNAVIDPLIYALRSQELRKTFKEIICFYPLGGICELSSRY

[5] = molecular target: T2, mMC5R; assay: CRE/β-galactosidase reporter gene bioassay, agonist activity at mMC5R; format: cell-based; details: for mMC5R pharmacology in words: comparisons are to reference peptide 1; for mMC5R Fold Diff.: fold difference in EC50 vs peptide 1, negative prefix = more potent than 1; for mMC5R fold less potent than peptide 1: less potent than 1
[6] = molecular target: T4, mMC4R; assay: CRE/β-galactosidase reporter gene bioassay, agonist activity at mMC4R; format: cell-based; details: ligand at 100 μM, compared to maximal response generated by α-MSH
[7] = molecular target: T3, mMC3R; assay: Antagonist Schild analysis against agonist MTII at mMC3R; format: cell-based; details: for mMC3R pharmacology class printed in Fold Diff column (Ant, SA): Ant = antagonist, SA = some stimulatory activity at 100 µM
[8] = molecular target: T1, mMC1R; assay: CRE/β-galactosidase reporter gene bioassay, agonist activity at mMC1R; format: cell-based; details: for mMC1R pharmacology in words: comparisons are to reference peptide 1; for mMC1R Fold Diff: fold difference in EC50 vs peptide 1, negative prefix = more potent than 1; for EC50: mMC1R EC50, agonist, HEK-293 cells stably expressing receptor, ±SEM
[9] = molecular target: T4, mMC4R; assay: Antagonist Schild analysis against agonist MTII at mMC4R; format: cell-based; details: for mMC4R pharmacology class printed in Fold Diff. column (Ant, SA): Ant = antagonist, SA = some stimulatory activity at 100 µM
[10] = molecular target: T3, mMC3R; assay: cell-based; format: cell-based
[11] = ligand at 100 μM, compared to maximal response generated by α-MSH

| Compound | mMC4R relative percentage of stimulation at 100 μM [6] [%] | Kb [7] [nM] | mMC3R pharmacology class printed in Fold Diff column (Ant, SA) [7] | mMC1R Fold Diff [8] | EC50 [8] | Kb [9] [nM] | mMC4R pharmacology class printed in Fold Diff. column (Ant, SA) [9] | EC50 [5] [nM] | mMC5R pharmacology in words [5] | mMC3R relative percentage of stimulation at 100 μM [10, 11] [%] | mMC5R Fold Diff. [5] | further results |
| --- | --- | --- | --- | --- | --- | --- | --- | --- | --- | --- | --- | --- |
| Ac-Phe-DPhe-Arg-Trp-NH2 (Ac-F[dF]RW-NH2; SMILES CC(=O)N[C@@H](Cc1ccccc1)C(=O)N[C@H](Cc1ccccc1)C(=O)N[C@@H](CCCNC(=N)N)C(=O)N[C@@H](Cc1c[nH]c2ccccc12)C(N)=O) [Peptide 48] |  |  |  |  |  |  |  |  |  |  |  | EC50 ([1]; ref [33]): 500 ± 100 nM; EC50 ([2]; ref [33]): 140 ± 5 nM; EC50 ([3]; ref [33]): 12000 ± 2000 nM; EC50 ([4]; ref [33]): 71 ± 14 nM |
| CC(=O)N[C@@H](Cc1cccs1)C(=O)N[C@H](Cc1ccccc1)C(=O)N[C@@H](CCCNC(=N)N)C(=O)N[C@@H](Cc1c[nH]c2ccccc12)C(N)=O [Peptide 52, Ac-2Thi-DPhe-Arg-Trp-NH2] (Ac-[2Thi][dF]RW-NH2) |  |  |  |  |  |  |  |  |  |  |  | EC50 ([1]; ref [33]): 200 ± 40 nM; EC50 ([2]; ref [33]): 41 ± 13 nM; selectivity between the mMC1R and the mMC5R ([5]; monosubstituted reference peptides, from literature EC50 values of Table 3): ≤ 5 fold; EC50 ([3]; ref [33]): 3000 ± 300 nM |
| Ac-His-DBip-Arg-Trp-NH2 [Peptide 47] |  |  |  |  |  |  |  |  |  |  |  | EC50 ([1]; ref [32]): 28 ± 11 nM; EC50 ([2]; ref [32]): 11.6 ± 3.9 nM; EC50 ([3]; ref [32]): 2100 ± 700 nM; EC50 ([4]; ref [32]): 68 ± 16 nM |
| CC(=O)N[C@@H](Cc1c[nH]cn1)C(=O)N[C@H](Cc1ccc(-c2ccccc2)cc1)C(=O)N[C@@H](CCCNC(=N)N)C(=O)N[C@@H](Cc1csc2ccccc12)C(N)=O [Peptide 34, Ac-His-DBip-Arg-3Bal-NH2] (Ac-H[dBip]R[Bta]-NH2) | 65 | 316 | SA Ant | −16 | 9 nM and 8.9 nM | 20 | SA Ant | 6.9 ± 0.2 | equipotent agonists | 55 |  | mMC1R pharmacology in words [8]: more potent; mMC1R fold difference in EC50, more potent than reference peptide 1 ([8]; more potent agonist than 1): 16 fold |
| Octanoyl-His-DPhe-Arg-Trp-NH2 [Peptide 54] |  |  |  |  |  |  |  |  |  |  |  | EC50 ([2]; ref [34]): 0.79 ± 0.25 nM; EC50 ([3]; ref [34]): 4 ± 0.7 nM |
| CC(=O)N[C@@H](Cc1cccnc1)C(=O)N[C@H](Cc1ccc(I)cc1)C(=O)N[C@@H](CCCNC(=N)N)C(=O)N[C@@H](Cc1c[nH]c2ccccc12)C(N)=O [Peptide 12, Ac-3PAL-(pI)DPhe-Arg-Trp-NH2] (Ac-[3Pal][dPhe(4-I)]RW-NH2) | 35 | 100 | Ant | 34 | 4800 ± 1400 nM | 5.01 | SA Ant | 18000 ± 3000 |  |  | 3340 | mMC5R fold less potent than peptide 1 [5]: 3300 fold |
| CC(=O)N[C@@H](Cc1cccs1)C(=O)N[C@H](Cc1ccc(I)cc1)C(=O)N[C@@H](CCCNC(=N)N)C(=O)N[C@@H](Cc1c[nH]c2ccccc12)C(N)=O [Peptide 14, Ac-2Thi-(pI)DPhe-Arg-Trp-NH2] (Ac-[2Thi][dPhe(4-I)]RW-NH2) | 55 | 39.8 | SA Ant |  | 490 ± 150 nM | 3.98 | SA Ant | 71 ± 30 |  | 40 | 14 | mMC1R pharmacology in words [8]: equipotent; mMC5R fold less potent than peptide 1 [5]: 11- to 25 fold |
| CC(=O)N[C@@H](Cc1c[nH]cn1)C(=O)N[C@H](Cc1ccc(-c2ccccc2)cc1)C(=O)N[C@@H](CCCNC(=N)N)C(=O)N[C@H](Cc1ccc(-c2ccccc2)cc1)C(N)=O [Peptide 35, Ac-His-DBip-Arg-DBip-NH2] (Ac-H[dBip]R[dBip]-NH2) | 23 | 200 | Ant |  | 90 ± 20 nM | 158 | SA Ant | 42 ± 7 | less potent |  | 8 | mMC1R pharmacology in words [8]: within 3-fold experimental error |
| CC(=O)N[C@@H](Cc1c[nH]cn1)C(=O)N[C@H](Cc1ccc(I)cc1)C(=O)N[C@@H](CCCNC(=N)N)C(=O)N[C@@H](Cc1csc2ccccc12)C(N)=O [Peptide 30, Ac-His-(pI)DPhe-Arg-3Bal-NH2] (Ac-H[dPhe(4-I)]R[Bta]-NH2) | 50 | 39.8 | SA Ant |  | 45 ± 14 nM | 10 | SA Ant | 3.2 ± 0.7 | equipotent agonists; also recorded: very potent nanomolar agonist activity | 25 |  |  |
| CC(=O)N[C@@H](Cc1ccccc1)C(=O)N[C@H](Cc1ccc(I)cc1)C(=O)N[C@@H](CCCNC(=N)N)C(=O)N[C@@H](Cc1c[nH]c2ccccc12)C(N)=O [Peptide 15, Ac-Phe-(pI)DPhe-Arg-Trp-NH2] (Ac-F[dPhe(4-I)]RW-NH2) | 30 | 126 | SA Ant | 6 | 820 ± 320 nM | 20 | SA Ant | 140 ± 30 |  | 20 | 25 | mMC5R fold less potent than peptide 1 [5]: 11- to 25 fold |
| CC(=O)N[C@@H](Cc1c[nH]cn1)C(=O)N[C@H](Cc1ccc(-c2ccccc2)cc1)C(=O)N[C@@H](CCCNC(=N)N)C(=O)N[C@@H](Cc1ccc(-c2ccccc2)cc1)C(N)=O [Peptide 33, Ac-His-DBip-Arg-Bip-NH2] (Ac-H[dBip]R[Bip]-NH2) | 30 | 501 | Ant | −9 | 15.8 ± 6.1 nM | 158 | Ant | 31.2 ± 4.7 | less potent |  | 6 | mMC1R pharmacology in words [8]: more potent |
| Ac-His-(pI)DPhe-Arg-Trp-NH2 [Peptide 45] |  |  |  |  |  |  |  |  |  |  |  | EC50 ([2]; ref [32]): 1.6 ± 0.4 nM |
| Ac-DHis-DPhe-Arg-Trp-NH2 [Peptide 53] |  |  |  |  |  |  |  |  |  |  |  | EC50 ([2]; ref [33]): 140 ± 20 nM; EC50 ([3]; ref [33]): 6200 ± 2500 nM |
| CC(=O)N[C@@H](Cc1ccncc1)C(=O)N[C@H](Cc1ccc(I)cc1)C(=O)N[C@@H](CCCNC(=N)N)C(=O)N[C@@H](Cc1c[nH]c2ccccc12)C(N)=O [Peptide 16, Ac-4PAL-(pI)DPhe-Arg-Trp-NH2] (Ac-[4Pal][dPhe(4-I)]RW-NH2) |  | 79.4 | Ant | 20 | 2900 ± 1500 nM | 1.26 | Ant | 610 ± 250 |  |  | 114 | fold preference for the mMC4R versus mMC3R ([9]; antagonist): 66 fold |
| CC(=O)N[C@@H](Cc1c[nH]c2ccccc12)C(=O)N[C@H](Cc1ccc(-c2ccccc2)cc1)C(=O)N[C@@H](CCCNC(=N)N)C(=O)N[C@@H](Cc1c[nH]c2ccccc12)C(N)=O [Peptide 18, Ac-Trp-DBip-Arg-Trp-NH2] (Ac-W[dBip]RW-NH2) | 45 | 200 | Ant | 13 | 1800 ± 1000 nM | 100 | SA Ant | 1800 ± 1300 | non-selective mMC1R and mMC5R micromolar agonist profile |  | 340 | mMC1R pharmacology in words [8]: non-selective mMC1R and mMC5R micromolar agonist profile |
| CC(=O)N[C@@H](Cc1c[nH]cn1)C(=O)N[C@H](Cc1ccc(I)cc1)C(=O)N[C@@H](CCCNC(=N)N)C(=O)N[C@@H](Cc1ccc(-c2ccccc2)cc1)C(N)=O [Peptide 29, Ac-His-(pI)DPhe-Arg-Bip-NH2] (Ac-H[dPhe(4-I)]R[Bip]-NH2) | 30 | 200 | SA Ant |  | 47 ± 9 nM | 39.8 | SA Ant | 12.4 ± 2 | equipotent agonists; also recorded: very potent nanomolar agonist activity | 35 |  |  |
| CCCCCCCC(=O)N[C@@H](Cc1c[nH]cn1)C(=O)N[C@H](Cc1ccc(I)cc1)C(=O)N[C@@H](CCCNC(=N)N)C(=O)N[C@@H](Cc1c[nH]c2ccccc12)C(N)=O [Peptide 6, Octanoyl-His-(pI)DPhe-Arg-Trp-NH2] | 30 | 5.01 | Ant | −22 | 6.3 ± 2.4 nM | 2.51 | Ant | 5.8 ± 1.7 | equipotent | 50 |  | Ki [9]: ~3 nM; mMC3R relative percentage of stimulation at 100 μM ([10]; 100000.0): 50%−65% |
